According to patent US8513303B2, “Antimicrobial agent” (De Montfort University, priority 2007, dated 2013):

How the values were obtained:
[1] = system: Pseudomonas aeruginosa ATCC 15442; assay: Quantitative suspension test, log10 reduction in bacterial numbers; type: cell-based; conditions: 0.5% w/v H2O2; for log reduction: 35° C.
From the text: (§1) Neutralisation (nullification of activity) of antimicrobial agents is required to prevent inhibitory concentrations from being transferred to the recovery medium (as discussed, for example, in Russell A. D. (2004) Factors influencing the efficacy of antimicrobial agents in Principles and Practice of Disinfection Preservation and Sterilization, 4th edition, eds Fraise A. P., Lambert P. A. and Maillard J. Y., pages 98-127, Oxford: Blackwell Publishing Ltd. and Russell A. D., Ahonkhai I. and Rogers, D. T. (1979) A review: microbiological applications of the inactivation of antibiotics and other antimicrobial agents. Journal of Applied Bacteriology, 46, 207-245). Thus, samples were removed at desired time points and then any hydrogen peroxide present in the sample was neutralised (i.e. deactivated) using catalase.
(§2) In the examples, catalase from bovine liver was used to neutralise the activity of any remaining hydrogen peroxide (as described in Russell A. D., Ahonkhai I. and Rogers, D. T. (1979), A review: microbiological applications of the inactivation of antibiotics and other antimicrobial agents, Journal of Applied Bacteriology, 46, 207-245) after the appropriate contact time during the experiments. Control experiments were conducted to establish whether the neutraliser nullified the activity of hydrogen peroxide and whether the neutraliser was toxic to the micro-organisms tested.
(§3) The effect of acidic pH conditions (pH 3.47 to 3.54) were investigated with and without hydrogen peroxide and air.
(§4) A quantitative suspension test (as described in Reybrouck G. (1998), The testing of disinfectants, International Biodeterioration and Biodegradation, 41, 269-272) based on the general principles of European quantitative suspension tests (BS EN1040:2005: Chemical disinfectants and antiseptics, Quantitative suspension test for the evaluation of basic bactericidal activity of chemical disinfectants and antiseptics, Test method and requirements (phase 1), London: British Standards Institute; BS EN 1276:1997: Chemical disinfectants and antiseptics, Quantitative suspension test for the evaluation of bactericidal activity of chemical disinfectants and antiseptics used in food, industrial, domestic, and institutional areas, Test method and requirements (phase 2, step 1). London: British Standards Institute) was used to establish the basic level of activity of the catalyst in the absence of organic matter. All tests were performed independently at least three times unless otherwise stated. Low concentrations (0.2-1% w/v) of hydrogen peroxide were used so that increases in antimicrobial activity could be detected if present.
(§5) Bacteria were inoculated into 10 ml volumes of nutrient broth and incubated at 37° C. for 18 to 24 hours at a shaking speed of 100 revolutions/minute. After incubation, the bacteria were washed by centrifugation to remove the nutrient broth; supernatants were discarded and the bacterial pellets were resuspended in sterilised distilled water. 7.5 ml of the washed bacterial suspension was added to 67.5 ml of hydrogen peroxide and/or distilled water to give a specific final concentration (ranging from 0 to 1% w/v—see Tables below) of hydrogen peroxide and approximately 8 log10 colony forming units (CFU)/mL of bacteria. The resultant mixture was stirred magnetically throughout the experiment. Where applicable, 1 g (+/−0.1 g) of either modified PAN fibre (referred to as PAN1 (control) or PAN2 (control)) or catalyst (referred to as PAN1 catalyst or PAN2 catalyst or PAN3 catalyst) comprising PAN fibres was added to the resultant mixture. The experiments were performed with or without air. If air was used, 2.5 L/min was supplied via. a filtered air pump and a sterilised Pyrex gas distribution tube.
(§6) After a specific contact time (see Tables below), 1 ml aliquots were removed from the experimental flask and transferred into 9 ml of neutraliser (catalase) for 5 minutes to inactivate any remaining hydrogen peroxide.

[2] = system: Staphylococcus aureus ATCC 6538; assay: as above; type: cell-based; conditions: 1% w/v H2O2
From the text: as §1, §2, §3, §4, §5, §6

[3] = air 2.5 L/min, 50 min, listed as hydrogen peroxide
[4] = no air, 60 min, listed as hydrogen peroxide
[5] = acidic pH 3.47 to 3.54, air 2.5 L/min, 10 min
[6] = acidic pH 3.47 to 3.54, air 2.5 L/min, 20 min
[7] = acidic pH 3.47 to 3.54, air 2.5 L/min, 30 min
[8] = acidic pH 3.47 to 3.54, air 2.5 L/min, 40 min
[9] = acidic pH 3.47 to 3.54, air 2.5 L/min, 50 min
[10] = acidic pH 3.47 to 3.54, air 2.5 L/min, 60 min
[11] = acidic pH 3.47 to 3.54, no air, 10 min
[12] = acidic pH 3.47 to 3.54, no air, 20 min
[13] = acidic pH 3.47 to 3.54, no air, 30 min
[14] = acidic pH 3.47 to 3.54, no air, 40 min
[15] = acidic pH 3.47 to 3.54, no air, 50 min
[16] = acidic pH 3.47 to 3.54, no air, 60 min

OO [Example H2O2, hydrogen peroxide]
Mean log10 reduction in CFU/ml ([1]; air 2.5 L/min, 10 min): 0.36 (0.13) log10 CFU/ml | Mean log10 reduction in CFU/ml ([1]; air 2.5 L/min, 20 min): 0.53 (0.10) log10 CFU/ml | Mean log10 reduction in CFU/ml ([1]; air 2.5 L/min, 30 min): 0.55 (0.18) log10 CFU/ml | Mean log10 reduction in CFU/ml ([1]; air 2.5 L/min, 40 min): 0.59 (0) log10 CFU/ml | Mean log10 reduction in CFU/ml ([1]; air 2.5 L/min, 50 min): 0.72 (0.07) log10 CFU/ml | Mean log10 reduction in CFU/ml [1, 3]: 0.72 log10 CFU/ml | Mean log10 reduction in CFU/ml ([1]; air 2.5 L/min, 60 min): 0.50 (0.09) log10 CFU/ml | Mean log10 reduction in CFU/ml ([1]; air 2.5 L/min, 60 min, listed as hydrogen peroxide): 0.5 log10 CFU/ml | Mean log10 reduction in CFU/ml ([1]; no air, 10 min): 0.52 (0.12) log10 CFU/ml | Mean log10 reduction in CFU/ml ([1]; no air, 20 min): 0.81 (0.24) log10 CFU/ml | Mean log10 reduction in CFU/ml ([1]; no air, 30 min): 0.88 (0.25) log10 CFU/ml | Mean log10 reduction in CFU/ml ([1]; no air, 40 min): 0.86 (0.32) log10 CFU/ml | Mean log10 reduction in CFU/ml ([1]; no air, 50 min): 0.87 (0.28) log10 CFU/ml | Mean log10 reduction in CFU/ml ([1]; no air, 60 min): 0.97 (0.22) log10 CFU/ml | Mean log10 reduction in CFU/ml [1, 4]: 0.97 log10 CFU/ml | log reduction ([1]; not buffered, air, 10 min): 1.80 log | log reduction ([1]; not buffered, air, 20 min): 2.42 log | log reduction ([1]; not buffered, air, 60 min): 3.61 log | log reduction ([1]; not buffered, no air, 10 min): 2.51 log | log reduction ([1]; not buffered, no air, 40 min): 4.15 log | log reduction ([1]; not buffered, no air, 60 min): 4.45 log | Mean log10 reduction in CFU/ml [1, 5]: 2.53 log10 CFU/ml | Mean log10 reduction in CFU/ml [1, 6]: 3.41 log10 CFU/ml | Mean log10 reduction in CFU/ml [1, 7]: 4.25 log10 CFU/ml | Mean log10 reduction in CFU/ml [1, 8]: ≧4.81 log10 CFU/ml | Mean log10 reduction in CFU/ml [1, 9]: ≧5.34 log10 CFU/ml | Mean log10 reduction in CFU/ml ([1]; acidic pH 3.47 to 3.54, air 2.5 L/min, 50 min, listed as hydrogen peroxide): greater than 5 log10 CFU/ml | Mean log10 reduction in CFU/ml [1, 10]: ≧5.34 log10 CFU/ml | Mean log10 reduction in CFU/ml [1, 11]: 2.30 log10 CFU/ml | Mean log10 reduction in CFU/ml [1, 12]: 2.76 log10 CFU/ml | Mean log10 reduction in CFU/ml [1, 13]: 3.71 log10 CFU/ml | Mean log10 reduction in CFU/ml [1, 14]: 3.88 log10 CFU/ml | Mean log10 reduction in CFU/ml [1, 15]: 4.52 log10 CFU/ml | Mean log10 reduction in CFU/ml [1, 16]: 4.83 log10 CFU/ml | Mean log10 reduction in CFU/ml ([1]; room temperature, not buffered, air 2.5 L/min, 10 min): 0.49 log10 CFU/ml | Mean log10 reduction in CFU/ml ([1]; room temperature, not buffered, air 2.5 L/min, 20 min): 0.70 log10 CFU/ml | Mean log10 reduction in CFU/ml ([1]; room temperature, not buffered, air 2.5 L/min, 30 min): 0.70 log10 CFU/ml | Mean log10 reduction in CFU/ml ([1]; room temperature, not buffered, air 2.5 L/min, 40 min): 0.80 log10 CFU/ml | Mean log10 reduction in CFU/ml ([1]; room temperature, not buffered, air 2.5 L/min, 50 min): 0.81 log10 CFU/ml | Mean log10 reduction in CFU/ml ([1]; room temperature, not buffered, air 2.5 L/min, 60 min): 0.63 log10 CFU/ml | Mean log10 reduction in CFU/ml ([1]; room temperature, not buffered, no air, 10 min): 0.58 log10 CFU/ml | Mean log10 reduction in CFU/ml ([1]; room temperature, not buffered, no air, 20 min): 1.00 log10 CFU/ml | Mean log10 reduction in CFU/ml ([1]; room temperature, not buffered, no air, 30 min): 1.00 log10 CFU/ml | Mean log10 reduction in CFU/ml ([1]; room temperature, not buffered, no air, 40 min): 1.00 log10 CFU/ml | Mean log10 reduction in CFU/ml ([1]; room temperature, not buffered, no air, 50 min): 1.02 log10 CFU/ml | Mean log10 reduction in CFU/ml ([1]; room temperature, not buffered, no air, 60 min): 1.12 log10 CFU/ml | Mean log10 reduction in CFU/ml ([2]; air 2.5 L/min, 10 min): 0.61 log10 CFU/ml | Mean log10 reduction in CFU/ml ([2]; air 2.5 L/min, 20 min): 1.27 log10 CFU/ml | Mean log10 reduction in CFU/ml ([2]; air 2.5 L/min, 30 min): 2.57 log10 CFU/ml | Mean log10 reduction in CFU/ml ([2]; air 2.5 L/min, 40 min): 3.84 log10 CFU/ml | Mean log10 reduction in CFU/ml ([2]; air 2.5 L/min, 50 min): 5.07 log10 CFU/ml | Mean log10 reduction in CFU/ml [2, 3]: 5 log10 CFU/ml | Mean log10 reduction in CFU/ml ([2]; air 2.5 L/min, 60 min): 5.40 log10 CFU/ml | Mean log10 reduction in CFU/ml ([2]; no air, 10 min): 0.70 log10 CFU/ml | Mean log10 reduction in CFU/ml ([2]; no air, 20 min): 1.43 log10 CFU/ml | Mean log10 reduction in CFU/ml ([2]; no air, 30 min): 2.88 log10 CFU/ml | Mean log10 reduction in CFU/ml ([2]; no air, 40 min): 3.89 log10 CFU/ml | Mean log10 reduction in CFU/ml ([2]; no air, 50 min): 4.97 log10 CFU/ml | Mean log10 reduction in CFU/ml ([2]; no air, 60 min): 5.37 log10 CFU/ml | Mean log10 reduction in CFU/ml [2, 4]: 5 log10 CFU/ml | Mean log10 reduction in CFU/ml [2, 5]: 1.00 log10 CFU/ml | Mean log10 reduction in CFU/ml [2, 6]: 1.86 log10 CFU/ml | Mean log10 reduction in CFU/ml [2, 7]: 2.33 log10 CFU/ml | Mean log10 reduction in CFU/ml [2, 8]: 2.83 log10 CFU/ml | Mean log10 reduction in CFU/ml [2, 9]: 2.23 log10 CFU/ml | Mean log10 reduction in CFU/ml [2, 10]: 3.45 log10 CFU/ml | Mean log10 reduction in CFU/ml [2, 11]: 0.69 log10 CFU/ml | Mean log10 reduction in CFU/ml [2, 12]: 0.72 log10 CFU/ml | Mean log10 reduction in CFU/ml [2, 13]: 1.30 log10 CFU/ml | Mean log10 reduction in CFU/ml [2, 14]: 2.03 log10 CFU/ml | Mean log10 reduction in CFU/ml [2, 15]: 2.90 log10 CFU/ml | Mean log10 reduction in CFU/ml [2, 16]: 3.23 log10 CFU/ml | Mean log10 reduction in CFU/ml ([2]; room temperature, no air, no catalyst, 10 min): 0.43 log10 CFU/ml | Mean log10 reduction in CFU/ml ([2]; room temperature, no air, no catalyst, 20 min): 1.21 log10 CFU/ml | Mean log10 reduction in CFU/ml ([2]; room temperature, no air, no catalyst, 30 min): 2.25 log10 CFU/ml | Mean log10 reduction in CFU/ml ([2]; room temperature, no air, no catalyst, 40 min): 3.92 log10 CFU/ml | Mean log10 reduction in CFU/ml ([2]; room temperature, no air, no catalyst, 50 min): 4.57 log10 CFU/ml | Mean log10 reduction in CFU/ml ([2]; room temperature, no air, no catalyst, 60 min): 5.10 log10 CFU/ml
